ChEMBL document CHEMBL1201862, “PubChem BioAssay data set” (2004)
Calls of active or inactive are those of the source.

Tests used:
Cytochrome P450 2D6 = Cytochrome P450 2D6 (Homo sapiens, UniProt P10635);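 further: CYP2D6 member of a cytochrome P450 panel assay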
Cytochrome P450 1A2 = biological target: T1, Cytochrome P450 1A2 (Homo sapiens, UniProt P05177);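 further: PubChem cytochrome P450 panel assay, CYP1A2 panel member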
T1 sequence (P05177 whole entry): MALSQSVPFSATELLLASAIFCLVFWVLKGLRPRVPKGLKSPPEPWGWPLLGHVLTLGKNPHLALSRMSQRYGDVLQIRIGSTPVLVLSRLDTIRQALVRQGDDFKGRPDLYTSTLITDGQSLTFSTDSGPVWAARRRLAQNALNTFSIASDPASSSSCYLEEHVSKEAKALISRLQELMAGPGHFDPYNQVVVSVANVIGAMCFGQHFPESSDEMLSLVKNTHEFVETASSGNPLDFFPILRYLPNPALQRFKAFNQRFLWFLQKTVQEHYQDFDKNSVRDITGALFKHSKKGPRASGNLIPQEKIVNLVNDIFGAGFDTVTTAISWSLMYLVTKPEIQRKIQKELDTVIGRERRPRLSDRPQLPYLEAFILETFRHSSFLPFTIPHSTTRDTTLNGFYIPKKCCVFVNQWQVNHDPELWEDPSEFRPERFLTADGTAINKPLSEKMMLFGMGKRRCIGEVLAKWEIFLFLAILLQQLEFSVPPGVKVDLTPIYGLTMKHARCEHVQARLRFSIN

Cytochrome P450 3A4 = Cytochrome P450 3A4 (Homo sapiens, UniProt P08684);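 further: CYP3A4 tested as one member of a cytochrome P450 panel screen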
Chain of Cytochrome P450 3A4 (P08684 whole entry): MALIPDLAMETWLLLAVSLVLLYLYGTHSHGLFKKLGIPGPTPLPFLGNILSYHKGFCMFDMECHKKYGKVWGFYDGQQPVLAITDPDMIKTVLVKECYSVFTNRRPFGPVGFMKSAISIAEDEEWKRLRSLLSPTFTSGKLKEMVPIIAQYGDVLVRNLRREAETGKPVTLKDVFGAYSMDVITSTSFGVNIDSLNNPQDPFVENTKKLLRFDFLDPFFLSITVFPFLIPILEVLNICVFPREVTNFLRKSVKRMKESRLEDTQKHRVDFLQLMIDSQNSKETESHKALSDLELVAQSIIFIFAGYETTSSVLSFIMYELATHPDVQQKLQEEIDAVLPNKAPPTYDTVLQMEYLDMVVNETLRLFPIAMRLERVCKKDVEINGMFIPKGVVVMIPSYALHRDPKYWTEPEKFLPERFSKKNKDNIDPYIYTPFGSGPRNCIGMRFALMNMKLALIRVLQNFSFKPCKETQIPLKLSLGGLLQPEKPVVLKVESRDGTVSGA

Cytochrome P450 2C9 = Cytochrome P450 2C9 (Homo sapiens, UniProt P11712)
Chain of Cytochrome P450 2C9 (P11712 whole entry): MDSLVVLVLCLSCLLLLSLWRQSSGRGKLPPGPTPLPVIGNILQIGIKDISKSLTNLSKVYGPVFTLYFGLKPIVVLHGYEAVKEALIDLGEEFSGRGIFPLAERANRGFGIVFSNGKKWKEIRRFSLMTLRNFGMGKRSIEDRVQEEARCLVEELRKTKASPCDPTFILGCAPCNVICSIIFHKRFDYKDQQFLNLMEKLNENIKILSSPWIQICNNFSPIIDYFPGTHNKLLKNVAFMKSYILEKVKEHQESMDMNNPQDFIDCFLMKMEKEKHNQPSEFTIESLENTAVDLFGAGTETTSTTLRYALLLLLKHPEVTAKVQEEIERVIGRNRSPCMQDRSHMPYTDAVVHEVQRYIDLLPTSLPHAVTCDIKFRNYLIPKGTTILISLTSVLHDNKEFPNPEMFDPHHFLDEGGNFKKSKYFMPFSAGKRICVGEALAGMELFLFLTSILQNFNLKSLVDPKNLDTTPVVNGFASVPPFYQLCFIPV

Cytochrome P450 2C19 = Cytochrome P450 2C19 (Homo sapiens, UniProt P33261); experiment: Cytochrome panel assay with activity outcomes. Panel member name: p450-cyp2c19 Compounds with AC50 equal or less than 10 uM are considered active; assay type: functional; conditions: read-out: AC50
Chain of Cytochrome P450 2C19 (P33261 whole entry): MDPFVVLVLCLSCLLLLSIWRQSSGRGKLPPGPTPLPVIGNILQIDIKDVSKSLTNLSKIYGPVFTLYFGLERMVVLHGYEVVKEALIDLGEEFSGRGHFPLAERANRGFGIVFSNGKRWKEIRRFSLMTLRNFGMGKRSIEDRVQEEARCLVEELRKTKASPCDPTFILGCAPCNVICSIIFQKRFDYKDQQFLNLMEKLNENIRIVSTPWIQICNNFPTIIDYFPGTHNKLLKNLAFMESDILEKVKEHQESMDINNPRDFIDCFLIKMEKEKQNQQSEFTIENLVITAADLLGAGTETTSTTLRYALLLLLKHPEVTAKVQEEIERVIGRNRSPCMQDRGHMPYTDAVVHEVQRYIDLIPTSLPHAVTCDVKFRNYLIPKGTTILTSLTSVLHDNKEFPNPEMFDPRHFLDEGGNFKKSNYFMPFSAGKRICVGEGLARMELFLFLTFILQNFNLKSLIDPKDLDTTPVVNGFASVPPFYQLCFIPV

[1] = biological target: T2, Corticotropin-releasing factor receptor 2/Corticotropin-releasing factor-binding protein (Homo sapiens, UniProt P24387+Q13324); experiment: Dose Response confirmation of uHTS hits for small molecule antagonists of the CRF-binding protein and CRF-R2 receptor complex.; assay type: functional; conditions: read-out: IC50_Mean
T2 sequence (Q13324 whole entry): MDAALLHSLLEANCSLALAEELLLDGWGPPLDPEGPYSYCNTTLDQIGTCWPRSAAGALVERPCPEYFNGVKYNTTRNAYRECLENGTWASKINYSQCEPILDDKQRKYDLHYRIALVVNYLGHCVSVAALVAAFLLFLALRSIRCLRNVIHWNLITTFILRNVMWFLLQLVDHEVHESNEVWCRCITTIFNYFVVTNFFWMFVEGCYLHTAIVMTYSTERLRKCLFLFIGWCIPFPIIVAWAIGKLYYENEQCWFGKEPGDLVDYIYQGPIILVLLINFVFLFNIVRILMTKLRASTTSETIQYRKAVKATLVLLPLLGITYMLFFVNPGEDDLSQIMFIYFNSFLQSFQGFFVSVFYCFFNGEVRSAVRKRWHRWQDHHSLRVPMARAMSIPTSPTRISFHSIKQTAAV
T2 sequence (P24387 whole entry): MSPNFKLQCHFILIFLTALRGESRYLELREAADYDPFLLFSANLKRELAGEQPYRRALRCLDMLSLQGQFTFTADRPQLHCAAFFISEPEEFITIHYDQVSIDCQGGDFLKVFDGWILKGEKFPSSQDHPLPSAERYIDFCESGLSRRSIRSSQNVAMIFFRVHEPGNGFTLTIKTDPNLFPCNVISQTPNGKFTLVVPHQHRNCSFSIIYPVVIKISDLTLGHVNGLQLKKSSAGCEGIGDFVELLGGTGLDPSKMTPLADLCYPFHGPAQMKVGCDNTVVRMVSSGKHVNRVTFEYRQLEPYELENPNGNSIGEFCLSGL

[2] = biological target: T2, Corticotropin-releasing factor receptor 2/Corticotropin-releasing factor-binding protein; experiment: activators of CRF receptor 2 with binding protein – uHTS hits, confirmation (AID 602473); assay type: functional; conditions: read-out: EC50_Mean

Chain of Cytochrome P450 2D6 (P10635 whole entry): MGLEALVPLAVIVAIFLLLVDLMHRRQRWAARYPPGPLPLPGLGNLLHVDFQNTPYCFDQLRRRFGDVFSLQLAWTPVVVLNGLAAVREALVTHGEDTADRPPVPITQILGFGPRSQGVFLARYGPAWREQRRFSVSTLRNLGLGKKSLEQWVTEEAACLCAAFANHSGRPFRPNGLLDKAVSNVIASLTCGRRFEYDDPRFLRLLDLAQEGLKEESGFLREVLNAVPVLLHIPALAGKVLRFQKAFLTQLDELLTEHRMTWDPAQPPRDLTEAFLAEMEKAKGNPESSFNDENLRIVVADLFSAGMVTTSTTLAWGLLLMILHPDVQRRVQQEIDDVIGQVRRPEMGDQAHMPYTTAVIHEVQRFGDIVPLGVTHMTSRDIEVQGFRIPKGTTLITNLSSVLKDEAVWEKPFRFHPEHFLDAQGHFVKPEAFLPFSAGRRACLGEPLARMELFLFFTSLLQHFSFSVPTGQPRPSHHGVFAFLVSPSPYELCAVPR

Compound | AC50 (Cytochrome P450 2D6) | AC50 (Cytochrome P450 1A2) | AC50 (Cytochrome P450 3A4) | AC50 (Cytochrome P450 2C9) | AC50 (Cytochrome P450 2C19) | IC50 [1] | EC50 [2]
c1ccc(N2CC[C@@]3(CCCNC3)C2)cc1 | 10 µM (inconclusive) | 39.8 µM (inconclusive) | 20 µM (inconclusive) | – | – | – | –
C=CCOc1c2ccc(C(=O)NC3CCCc4ccccc43)cc2nn1C (centres undefined) | 22.4 µM (inconclusive) | 15.8 µM (inconclusive) | – | – | – | – | –
CCC(C)NC(=O)c1ccccc1NC(=O)Nc1ccccc1 (centres undefined) | – | 3.16 µM (inconclusive) | – | 15.8 µM (inconclusive) | – | – | –
CNc1ncncc1-c1ccccc1OC | – | 1.58 µM (inconclusive) | 0.251 µM (inconclusive) | – | – | – | –
O=c1c2ccccc2nc(N2CCCC2)n1-c1ccc(Cl)cc1 | 10 µM (inconclusive) | – | – | – | 1.26 µM (inconclusive) | > 47.1 µM (inactive) | > 53 µM (inactive)
N#CC(c1ccccc1F)(c1ncc(C(F)(F)F)cc1Cl)N1CCOCC1 (centres undefined) | – | 25.1 µM (inconclusive) | 22.4 µM (inconclusive) | 31.6 µM (inconclusive) | – | – | –
Cc1cc(C)cc(C(=O)OC2C[C@H]3CC[C@@H](C2)N3C)c1 (some centres undefined) | – | 25.1 µM (inconclusive) | – | – | 39.8 µM (inconclusive) | – | –
Cn1cnnc1SCC(=O)OCN1C(=O)c2ccccc2C1=O | – | 25.1 µM (inconclusive) | – | – | 10 µM (inconclusive) | – | –
CCN1C(=O)C(O)(CC(=O)/C=C/C=C/c2ccccc2)c2ccccc21 (centres undefined) | – | – | 17.8 µM (inconclusive) | 0.141 µM (inconclusive) | 35.5 µM (inconclusive) | – | –
O=[N+]([O-])c1ccc2c(c1)N=C1O[C@H](c3ccc([C@H]4OC5=Nc6cc([N+](=O)[O-])ccc6NC5=C4O)cc3)C(O)=C1N2 | – | 3.16 µM (inconclusive) | 3.16 µM (inconclusive) | – | – | – | –
O=c1c(-c2cc(F)cc(F)c2)nc2cnc(N3CCNCC3)nc2n1Cc1cccs1 | – | 2.51 µM (inconclusive) | – | – | 39.8 µM (inconclusive) | – | –
COc1ccc(-n2c3c(c(=O)[nH]c2=O)C(C(F)(F)F)(C(F)(F)F)NC(CC(C)C)=N3)cc1 | – | 39.8 µM (inconclusive) | 17.8 µM (inconclusive) | 28.2 µM (inconclusive) | 10 µM (inconclusive) | – | –
C[C@H]1CCCC=CC2C[C@H](O)C[C@@H]2[C@H](O)/C=C\C(=O)O1 (some centres undefined) | – | 15.8 µM (inconclusive) | 31.6 µM (inconclusive) | 15.8 µM (inconclusive) | – | – | –
